Data as given in patent US8871205B2, “Methods and compositions for the treatment of immune disorders” (The University of North Carolina at Chapel Hill, priority 2009, dated 2014).
Entries after “also recorded” stand apart in the source; their conditions may differ.

Assays:
peritoneal macrophages = assay: TLR agonist-induced cytokine production (ELISA) in peritoneal macrophages pretreated with Rac1 inhibitor; type: cell-based, mouse
Method: Immunoblot analysis of NF-κB and mitogen-activated protein kinase (MAPK) signaling molecules was performed with WT and Plxna4^−/− peritoneal macrophages left untreated (0) or treated for 15, 30 or 60 min with 1 μg/ml ultrapure LPS (FIG. 3A). FIG. 3B and FIG. 3C show chromatin immunoprecipitation (ChIP) assays of the binding of p65 or c-Jun at the promoter regions of Tnfa and Il6 gene in WT and Plxna4^−/− peritoneal macrophages left untreated or treated with 10 μg/ml poly(I:C), 1 μg/ml ultrapure LPS (B), 5 μg/ml Pam3Cys or 4 μg/ml CpG (C) for 1 h. Cells were left untreated (0) or treated for 15 or 30 min with 1 μg/ml ultrapure LPS. Rac1, Cdc42 and RhoA pull-down analysis were performed as described in the Examples section. Total Rac1, Cdc42 and RhoA in cell lysate were used as controls. […] Protein levels of TNF-α and IL-6 were measured by ELISA. The results shown are representative of three independent experiments and are expressed as mean±s.d. * P<0.05 compared to WT peritoneal macrophages without NSC23766 pretreatment.
Total peritoneal cells were harvested from the peritoneal cavities of naïve WT or Plxna4^−/− mice with two 10 ml cold sterile PBS wash. […] The remaining cells were thoroughly washed with PBS and counted in a hemocytometer. Cytospins were prepared and stained with Diff-Quik solutions, and the number of peritoneal macrophages was determined. […]
(§1) Cytokines generated by in vitro cultured peritoneal macrophages were quantified using the ELISA Set for mouse TNF-α or IL-6 (BD Biosciences) and mouse IFN-β ELISA Kit (PBL InterferonSource). For the in vivo experiments, concentrations of TNF-α, IL-1β, IL-6, IL-12p70, CCL2 and CCL3 were measured in cell-free peritoneal lavage fluid, serum, and lung homogenate using a Customized Mouse Cytokine 6-plex Panel (BioLegend) and a Luminex Bio-Plex 200 system (Bio-Rad Laboratories). […]

[1] = tested on: WT or Plxna4−/− peritoneal macrophages; assay: TNF-α and IL-6 production (RT-PCR, ELISA) in peritoneal macrophages stimulated with Sema3A-Fc or Sema6A-Fc in the absence or presence of LPS; type: cell-based, mouse
Method: Messenger RNA (FIG. 7A) or protein (FIG. 7B) levels of TNF-α and IL-6 were measured by RT-PCR and ELISA, respectively. The IgG Fc fragment (100 μg/ml) was used as a negative control. WT and Plxna4^−/− mice (n=7˜9 per group) were pretreated with either Sema3A-Fc or IgG Fc control proteins at a dosage of 25 μg per kg body weight 1 h prior to CLP procedure (FIG. 7C). Survival rate was monitored for 5 days. τP<0.05 compared with WT mice pretreated with Sema3A-Fc. WT mice (n=4 per group) were pretreated with either Sema3A-Fc or IgG Fc control proteins, followed by CLP surgery (FIG. 7D). Inflammatory cytokines in peritoneal lavage collected 4 h after CLP were determined by ELISA. * P<0.05 compared to peritoneal lavage from WT mice pretreated with Sema3A-Fc (FIG. 7E). […] WT and Plxna4^−/− mice (n=4 per group experiment) were pretreated with either Sema3A-Fc or IgG Fc control proteins at a dosage of 25 ug/kg body weight 1 hour before CLP procedure. Inflammatory cytokines in peritoneal lavage collected 4 h after CLP were determined by ELISA. *P<0.05 compared with peritoneal lavage from WT mice pretreated with Sema3A-Fc (FIG. 7G).
Total peritoneal cells were harvested from the peritoneal cavities of naïve WT or Plxna4^−/− mice with two 10 ml cold sterile PBS wash. Lavage was pooled for mice in the same group. RBCs were lysed in ammonium chloride buffer (150 mM NH4CL, 10 mM NaHCO3, 1 mM EDTA-tetrasodium). The remaining cells were thoroughly washed with PBS and counted in a hemocytometer. Cytospins were prepared and stained with Diff-Quik solutions, and the number of peritoneal macrophages was determined. […]
as §1

Rac1 = target: T1, Rac1 (Mus musculus, UniProt P63001); assay: Detection of GTP-bound Rac1 (pull-down) in macrophages; type: cell-based
T1 construct: endogenous in cells; host or cells: primary mouse peritoneal macrophages (WT, Plxna4-/-)
Method: The assays for GTP-bound Rac1, Cdc42 and RhoA were performed as described (Noren et al., 2000). Briefly, peritoneal macrophages were stimulated with 1 μg/ml LPS for various time periods. Cells were lysed and GTP-bound Rac1 and Cdc42 were affinity precipitated using Rac1/Cdc42-binding domain of PAK (PBD) fused with GST. GTP-bound RhoA was affinity precipitated using RhoA-binding domain of rhotekin (RBD) fused with GST. Bound proteins were resolved on a NuPAGE® (SDS PAGE) gel and were transferred onto nitrocellulose membranes. Membranes were immunoblotted with the appropriate primary antibodies against Rac1, Cdc42 or RhoA.
To assess a converging point for TLR and plexin-A4, we assayed for GTP-bound Rac1.

WT and Plxna4−/− mice [2] = assay: Inflammatory cytokines in peritoneal lavage after CLP (ELISA); type: in vivo; settings: 25 μg/kg 1 h prior to CLP, 4 h after CLP, versus IgG Fc-treated controls
Method: (§2) WT and Plxna4^−/− peritoneal macrophages were stimulated with LPS (1 μg/ml) for 4 h in the absence or presence of either Sema3A-Fc or Sema6A-Fc fusion proteins (20 or 100 μg/ml) (FIG. 7A and FIG. 7B). Messenger RNA (FIG. 7A) or protein (FIG. 7B) levels of TNF-α and IL-6 were measured by RT-PCR and ELISA, respectively. The IgG Fc fragment (100 μg/ml) was used as a negative control. WT and Plxna4^−/− mice (n=7˜9 per group) were pretreated with either Sema3A-Fc or IgG Fc control proteins at a dosage of 25 μg per kg body weight 1 h prior to CLP procedure (FIG. 7C). Survival rate was monitored for 5 days. τP<0.05 compared with WT mice pretreated with Sema3A-Fc. […] Inflammatory cytokines in peritoneal lavage collected 4 h after CLP were determined by ELISA. * P<0.05 compared to peritoneal lavage from WT mice pretreated with Sema3A-Fc (FIG. 7E). […] Inflammatory cytokines in peritoneal lavage collected 4 h after CLP were determined by ELISA. *P<0.05 compared with peritoneal lavage from WT mice pretreated with Sema3A-Fc (FIG. 7G).
Cytokines generated by in vitro cultured peritoneal macrophages were quantified using the ELISA Set for mouse TNF-α or IL-6 (BD Biosciences) and mouse IFN-β ELISA Kit (PBL InterferonSource). […]
CLP surgery was performed on mice as previously described with minor modifications (Wen et al., 2008). […] For survival studies, mice subjected to surgery were monitored for 5 days. […]

WT and Plxna4−/− mice [3] = assay: Survival after experimental sepsis induced by CLP; type: in vivo; settings: 25 μg/kg 1 h prior to CLP
Method: as §2
CLP surgery was performed on mice as previously described with minor modifications (Wen et al., 2008). […] For survival studies, mice subjected to surgery were monitored for 5 days. […] Colonies were counted and expressed as CFU/ml. […]
We next assessed if Sema3A engagement of plexin-A4 could synergistically exacerbate CLP-induced septic inflammation. […]

Row | Compound | cytokine production (peritoneal macrophages; TLR-activated Plxna4−/− macrophages, NSC23766 pretreatment) | IFN-β production (peritoneal macrophages; WT macrophages, Rac1 inhibition) | TNF-α and IL-6 production (peritoneal macrophages; WT peritoneal macrophages, NSC23766 200 μM pretreatment 1 h, various TLR agonists 4 h, ELISA) | LPS-induced TNF-α and IL-6 production (enhancement in LPS-responsiveness) ([1]; Plxna4−/− macrophages) | LPS-induced TNF-α and IL-6 production ([1]; WT peritoneal macrophages, suboptimal LPS, fusion proteins 20 or 100 μg/ml) | TNF-α and IL-6 production ([1]; semaphorin alone, absence of LPS, macrophages) | Rac1 activation (GTP-bound Rac1) (Rac1; Myd88−/− macrophages) | Rac1 activation (GTP-bound Rac1) (Rac1; Plxna4−/− macrophages) | Rac1 activation (GTP-bound Rac1) (Rac1; WT macrophages, LPS and Sema3A together) | Rac1 activation (GTP-bound Rac1) (Rac1; WT macrophages, single stimulus) | levels of inflammatory cytokines in peritoneal lavage (WT and Plxna4−/− mice [2]) | survival rate (WT and Plxna4−/− mice [3])
1 | CCN(CC)CCCC(C)Nc1nc(C)cc(Nc2ccc3nc(C)cc(N)c3c2)n1 (stereo not drawn) [NSC23766] | no inhibitory effect | not affected | significantly attenuate | – | – | – | – | – | – | – | – | –
2 | Sema3A: Recombinant human Sema3A-Fc (1250-S3, R&D); chimeric protein of human IgG1 Fc fragment fused to Sema3A; plexin-A4 ligand | – | – | – | completely abolished | enhanced | Neither Sema3A nor Sema6A alone induced; also recorded: failed to induce cytokine production | neither Sema3A nor LPS activated; also recorded: attenuated | not observed | enhanced this activation | resulted in Rac1 activation | significantly higher levels | did not affect
